These results are taken from PMC4737552 (Neuropharmacology, 2015).

For data set [1], the target named is human α2β2γ2 GABAA receptor (Homo sapiens, UniProt P18507+P47869+P47870, DEL377-384, form not given). As to the kind of experiment: Whole-cell patch clamp, HEK293 cells expressing α2β2γ2 GABAARs. It is filed as cell-based. (In general: The patch-clamp technique gives a direct electrical read-out from membranes.)
Data set [2] has as its target human α1β2γ2 GABAA receptor (Homo sapiens, UniProt P14867+P18507+P47870, DEL377-384, form not given). The format is cell-based. The conditions noted are these: for Enhancement of GABA current by carisoprodol, % of control: 100 µM CSP.
Data set [3] has as its target human α3β2γ2 GABAA receptor (Homo sapiens, UniProt P18507+P34903+P47870, DEL377-384, form not given). In words: Whole-cell patch clamp, HEK293 cells expressing α3β2γ2 GABAARs. The format is cell-based.
Data set [4] addresses T1, human α1β2 GABAA receptor (Homo sapiens, UniProt P14867+P47870).
T1 sequence (P14867 28-456): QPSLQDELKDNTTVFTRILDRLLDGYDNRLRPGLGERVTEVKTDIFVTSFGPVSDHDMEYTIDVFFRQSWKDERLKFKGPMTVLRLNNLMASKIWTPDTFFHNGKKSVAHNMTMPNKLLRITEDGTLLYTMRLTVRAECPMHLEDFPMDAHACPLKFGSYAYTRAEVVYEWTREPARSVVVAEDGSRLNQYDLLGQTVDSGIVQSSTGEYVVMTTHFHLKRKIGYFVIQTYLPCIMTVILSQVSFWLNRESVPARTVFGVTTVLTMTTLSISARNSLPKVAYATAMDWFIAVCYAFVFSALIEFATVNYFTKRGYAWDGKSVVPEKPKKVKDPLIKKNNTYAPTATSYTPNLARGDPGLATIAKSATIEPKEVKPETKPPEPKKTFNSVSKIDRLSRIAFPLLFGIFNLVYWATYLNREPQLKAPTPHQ
T1 sequence (P47870 25-512 limits assumed): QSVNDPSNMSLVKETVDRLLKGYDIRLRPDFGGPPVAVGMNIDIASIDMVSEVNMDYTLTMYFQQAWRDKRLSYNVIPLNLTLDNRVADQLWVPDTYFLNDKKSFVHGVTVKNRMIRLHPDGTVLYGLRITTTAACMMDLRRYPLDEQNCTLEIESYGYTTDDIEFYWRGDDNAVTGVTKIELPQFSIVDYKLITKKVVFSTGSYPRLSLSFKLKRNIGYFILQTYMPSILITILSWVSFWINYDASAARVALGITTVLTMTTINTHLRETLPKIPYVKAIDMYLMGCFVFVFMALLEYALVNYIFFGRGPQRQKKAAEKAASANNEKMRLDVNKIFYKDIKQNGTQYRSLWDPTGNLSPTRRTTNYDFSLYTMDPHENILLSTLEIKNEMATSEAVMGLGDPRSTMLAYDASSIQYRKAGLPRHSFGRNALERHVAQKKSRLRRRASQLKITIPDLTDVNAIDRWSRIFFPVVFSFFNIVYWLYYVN
The format is cell-based.

Data set [5] concerns the target human α6β2γ2 GABAA receptor (Homo sapiens, UniProt P18507+P47870+Q16445, DEL377-384, form not given). In words: Whole-cell patch clamp, HEK293 cells expressing α6β2γ2 GABAARs. It is filed as cell-based.
In data set [6] the target is human α1β1γ2 GABAA receptor (Homo sapiens, UniProt P14867+P18505+P18507, DEL377-384, form not given). In words: Whole-cell patch clamp, HEK293 cells expressing α1β1γ2 GABAARs. It is filed as cell-based.
The target of the next data set is rat α4β3δ GABAA receptor (Rattus norvegicus, UniProt P18506+P28471+P63079). As to the kind of experiment: Whole-cell patch clamp, HEK293 cells expressing extrasynaptic rat α4β3δ GABAARs. The format is cell-based. The settings on record: for Potentiation of saturating (maximal) GABA currents: sub-gating concentration of drug.
The target in data set [7] is T2, rat α1β3δ GABAA receptor (Rattus norvegicus, UniProt P18506+P62813+P63079). The settings on record: for Potentiation of saturating (maximal) GABA currents: sub-gating concentration of drug.
In the next data set the target is rat α1β2 GABAA receptor (Rattus norvegicus, UniProt P62813+P63138). As to the kind of experiment: Whole-cell patch clamp, HEK293 cells expressing rat α1β2 GABAARs. It is filed as cell-based.
Data set [8] deals with T3, rat α1β3 GABAA receptor (Rattus norvegicus, UniProt P62813+P63079). As to the kind of experiment: cell-based.
The target of data set [9] is rat α1β3γ2 GABAA receptor (Rattus norvegicus, UniProt P18508+P62813+P63079). As to the kind of experiment: Whole-cell patch clamp, HEK293 cells expressing rat α1β3γ2 GABAARs. It is filed as cell-based.
The target of data set [10] is human α4β2γ2 GABAA receptor (Homo sapiens, UniProt P18507+P47870+P48169, DEL377-384, form not given). In words: Whole-cell patch clamp, HEK293 cells expressing α4β2γ2 GABAARs. It is filed as cell-based.
The target in data set [11] is human α5β2γ2 GABAA receptor (Homo sapiens, UniProt P18507+P31644+P47870, DEL377-384, form not given). As to the kind of experiment: Whole-cell patch clamp, HEK293 cells expressing α5β2γ2 GABAARs. The format is cell-based.
Data set [12] has as its system αxβ2γ2 GABAA receptors, where x = α subunit 1–6. As to the kind of experiment: Whole-cell patch clamp, direct gating across αxβ2γ2 GABAA receptors. The format is cell-based, human. The settings on record: range over α1–α6 β2γ2 receptors.
Data set [13] addresses T2, rat α1β3δ GABAA receptor. In words: cell-based.
The conditions of data set [14]: case reports; ref McIntyre et al., 2012; Robertson and Marinetti, 2003; cited from earlier work.
For data set [15] the following is noted: single dose of 350 mg; ref Littrell et al., 1993; cited from earlier work.
Data set [16] deals with T3, rat α1β3 GABAA receptor.
Where [17] appears, read: maximum current by carisoprodol plus GABA (EC20) normalized to GABA (EC20) currents.
The mark [18] stands for this setting: normalized to maximum GABA gated currents.
The mark [19] stands for this setting: read-out: Carisoprodol direct gating EC50, relative to maximum current elicited by carisoprodol.
The mark [20] stands for this setting: read-out: EC50 for allosteric modulation by carisoprodol, in the presence of GABA (EC20).

Like-named read-outs stand apart in the source and are kept apart here.

T2 sequence (P62813 28-455): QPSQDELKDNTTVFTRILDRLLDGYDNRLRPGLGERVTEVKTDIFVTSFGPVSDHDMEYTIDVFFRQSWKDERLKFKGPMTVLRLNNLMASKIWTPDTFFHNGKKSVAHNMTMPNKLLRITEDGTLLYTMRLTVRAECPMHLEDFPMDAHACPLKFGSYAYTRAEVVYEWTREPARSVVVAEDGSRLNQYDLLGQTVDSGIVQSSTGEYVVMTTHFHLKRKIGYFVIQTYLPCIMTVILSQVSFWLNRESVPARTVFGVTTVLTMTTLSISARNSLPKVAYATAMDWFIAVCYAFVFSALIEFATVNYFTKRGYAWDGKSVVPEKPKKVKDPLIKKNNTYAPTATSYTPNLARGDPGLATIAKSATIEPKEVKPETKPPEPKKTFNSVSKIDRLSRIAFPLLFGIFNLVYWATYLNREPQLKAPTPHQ
T2 sequence (P63079 26-473): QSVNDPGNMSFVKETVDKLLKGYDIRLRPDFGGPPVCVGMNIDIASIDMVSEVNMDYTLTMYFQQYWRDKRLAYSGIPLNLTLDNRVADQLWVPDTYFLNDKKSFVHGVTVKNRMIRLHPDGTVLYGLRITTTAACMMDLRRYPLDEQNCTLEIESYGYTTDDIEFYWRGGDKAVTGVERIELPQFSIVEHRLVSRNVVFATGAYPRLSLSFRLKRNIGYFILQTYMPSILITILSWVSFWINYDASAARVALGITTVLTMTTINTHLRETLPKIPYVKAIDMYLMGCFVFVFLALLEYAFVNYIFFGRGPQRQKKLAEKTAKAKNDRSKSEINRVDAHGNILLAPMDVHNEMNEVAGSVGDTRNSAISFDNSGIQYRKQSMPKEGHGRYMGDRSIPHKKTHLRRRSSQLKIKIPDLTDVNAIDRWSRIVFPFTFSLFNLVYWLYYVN
T2 sequence (P18506 17-449 limits assumed): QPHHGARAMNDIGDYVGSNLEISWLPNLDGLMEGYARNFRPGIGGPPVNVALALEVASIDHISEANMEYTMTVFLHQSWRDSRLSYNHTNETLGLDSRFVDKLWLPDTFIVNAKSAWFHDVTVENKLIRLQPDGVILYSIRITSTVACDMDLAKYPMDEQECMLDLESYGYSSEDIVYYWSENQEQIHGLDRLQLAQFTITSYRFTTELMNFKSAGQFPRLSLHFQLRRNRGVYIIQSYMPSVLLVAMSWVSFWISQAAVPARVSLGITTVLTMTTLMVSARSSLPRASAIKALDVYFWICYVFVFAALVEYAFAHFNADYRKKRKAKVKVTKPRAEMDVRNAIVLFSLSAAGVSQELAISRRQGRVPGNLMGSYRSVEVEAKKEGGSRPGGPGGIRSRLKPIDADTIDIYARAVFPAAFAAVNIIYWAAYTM
rat α1β2 GABAA receptor, sequence (P62813 28-455): as the sequence (P62813 28-455) above
rat α1β2 GABAA receptor, sequence (P63138 25-474 limits assumed): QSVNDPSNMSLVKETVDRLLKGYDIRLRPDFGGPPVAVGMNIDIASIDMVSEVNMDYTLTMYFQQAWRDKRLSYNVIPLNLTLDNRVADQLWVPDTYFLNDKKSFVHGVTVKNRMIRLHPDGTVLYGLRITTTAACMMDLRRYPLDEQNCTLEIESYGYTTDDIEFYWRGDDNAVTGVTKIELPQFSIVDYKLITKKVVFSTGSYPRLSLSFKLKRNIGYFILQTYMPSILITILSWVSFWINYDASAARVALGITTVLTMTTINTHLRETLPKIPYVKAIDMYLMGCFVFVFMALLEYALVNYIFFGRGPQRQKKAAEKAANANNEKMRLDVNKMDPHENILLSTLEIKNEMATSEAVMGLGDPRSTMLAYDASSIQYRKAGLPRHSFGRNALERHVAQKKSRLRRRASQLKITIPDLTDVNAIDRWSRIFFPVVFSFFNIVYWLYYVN
T3 sequence (P62813 28-455): as the sequence (P62813 28-455) above
T3 sequence (P63079 26-473): as the sequence (P63079 26-473) above
rat α4β3δ GABAA receptor, sequence (P28471 36-552): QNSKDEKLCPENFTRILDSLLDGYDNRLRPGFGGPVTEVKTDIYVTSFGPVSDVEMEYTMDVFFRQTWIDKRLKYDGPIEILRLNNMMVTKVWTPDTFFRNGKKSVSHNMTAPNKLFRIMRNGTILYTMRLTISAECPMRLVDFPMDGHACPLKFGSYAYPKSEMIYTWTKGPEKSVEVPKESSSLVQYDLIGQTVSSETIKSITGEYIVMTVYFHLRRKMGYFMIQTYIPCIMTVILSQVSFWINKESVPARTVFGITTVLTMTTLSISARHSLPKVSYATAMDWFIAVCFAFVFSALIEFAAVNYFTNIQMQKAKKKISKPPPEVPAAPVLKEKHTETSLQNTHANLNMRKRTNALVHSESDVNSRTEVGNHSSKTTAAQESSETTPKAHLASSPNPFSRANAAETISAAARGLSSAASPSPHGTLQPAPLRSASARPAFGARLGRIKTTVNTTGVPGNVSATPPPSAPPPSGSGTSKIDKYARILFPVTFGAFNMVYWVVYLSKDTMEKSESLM
rat α4β3δ GABAA receptor, sequence (P63079 26-473): as the sequence (P63079 26-473) above
rat α4β3δ GABAA receptor, sequence (P18506 17-449 limits assumed): as the sequence (P18506 17-449 limits assumed) above

As for `NCCCC(=O)O` [GABA, γ-aminobutyric acid], the “GABA Hill Coefficient” value in data set [1] is given as 1.09 ± 0.12; in data set [2] it was 1.32 ± 0.03; in data set [3], 1.04 ± 0.06; in [4] (α1β2), 1.32 ± 0.11; in [5], 1.02 ± 0.12; in data set [6], 1.17 ± 0.09. Also, the “GABA current amplitude at +60 mV as % of that recorded at −60 mV (outward rectification)” value in data set [2] (lower concentrations of GABA) turned out to be 110%.

For the compound `CCCC(C)C1(CC)C(=O)NC(=O)NC1=O` (stereo not shown) [pentobarbital], the “Potentiation of saturating (maximal) GABA currents” value on rat α4β3δ GABAA receptor and on rat α1β3δ GABAA receptor [7] (α1β3δ) was “potentiation of saturating GABA currents” in each case.

For `Oc1noc2c1CCNC2` [THIP, 4,5,6,7-tetrahydroisoxazolo(5,4-c)pyridin-3-ol], the “THIP-gated currents, % of the amplitude of currents obtained with saturating GABA” value on rat α4β3δ GABAA receptor amounted to 153.4 ± 10.7%; on rat α1β3δ GABAA receptor [7] (α1β3δ), 135.6 ± 7.2%.

Broadly, the EC50 is the concentration giving half of the maximal effect. Take `CCCC(C)(COC(N)=O)COC(=O)NC(C)C` (stereo not shown) [carisoprodol, Carisoprodol]: the EC50 at rat α1β2 GABAA receptor (CSP gating EC50, rat α1β2, relative to maximum current elicited by carisoprodol) is 670 ± 22.2 µM; on rat α1β2 GABAA receptor (CSP modulation EC50, rat α1β2, in the presence of GABA (EC20)), 120 ± 10.5 µM; at rat α1β3 GABAA receptor [8] (CSP gating EC50, rat α1β3, relative to maximum current elicited by carisoprodol), 606 ± 25.3 µM; on rat α1β3 GABAA receptor [8] (CSP modulation EC50, rat α1β3, in the presence of GABA (EC20)) it was 135 ± 12.8 µM; in data set [1] (setting [19]) it was 829 ± 50.2 µM; in data set [1] (setting [20]), 64.9 ± 19.1 µM. Besides, the EC50 amounted to 686 ± 30.4 µM in [2] (setting [19]); 88.2 ± 19.9 µM in [2] (setting [20]); 131 ± 12.4 µM in data set [9] (CSP modulation EC50, rat α1β3γ2, in the presence of GABA (EC20)); 758 ± 61.3 µM in data set [10] (setting [19]); 72.3 ± 10.1 µM in data set [10] (setting [20]); 835 ± 60.3 µM in [11] (setting [19]). For the same compound, the EC50 in [11] (setting [20]) was determined as 90.8 ± 14.7 µM; on rat α1β3δ GABAA receptor [13] (CSP gating EC50, rat α1β3δ, relative to maximum current elicited by carisoprodol), 801 ± 24.2 µM; at rat α1β3δ GABAA receptor [13] (CSP modulation EC50, rat α1β3δ, in the presence of GABA (EC20)) it was 109 ± 11.4 µM; in data set [3] (setting [19]) it was 1870 ± 92.4 µM; in data set [3] (setting [20]), 63.7 ± 16.5 µM; in [4] (Carisoprodol direct gating EC50, α1β2, relative to maximum current elicited by carisoprodol), 679 ± 24.3 µM. Moreover, the EC50 in data set [4] (EC50 for allosteric modulation by carisoprodol, α1β2, in the presence of GABA (EC20)) came to 87.4 ± 16.4 µM; in [5] (setting [19]), 294 ± 28.1 µM; in data set [5] (setting [20]) it was 79.8 ± 13.8 µM; in data set [6] (setting [19]) it was 729 ± 58.1 µM; in data set [6] (setting [20]) it was 33.1 ± 4 µM. In addition, the “CSP modulation Efficacy” value was determined as 442.2 ± 27.7 on rat α1β2 GABAA receptor (rat α1β2, maximum current by carisoprodol plus GABA (EC20) normalized to GABA (EC20) currents); 241.5 ± 25.1 on rat α1β3δ GABAA receptor [7] (rat α1β3δ, maximum current by carisoprodol plus GABA (EC20) normalized to GABA (EC20) currents); 234.5 ± 18.9 on rat α1β3 GABAA receptor [16] (rat α1β3, maximum current by carisoprodol plus GABA (EC20) normalized to GABA (EC20) currents). The “CSP gating Efficacy” value on rat α1β2 GABAA receptor (rat α1β2, normalized to maximum GABA gated currents) was found to be 44.6 ± 4.85; in data set [9] (rat α1β3γ2, normalized to maximum GABA gated currents), 44.8 ± 3.23; at rat α1β3δ GABAA receptor [7] (rat α1β3δ, normalized to maximum GABA gated currents), 128.7 ± 12.3; on rat α1β3 GABAA receptor [16] (rat α1β3, normalized to maximum GABA gated currents), 50.8 ± 6.24. In addition, the “Efficacy of allosteric modulation by carisoprodol” value in data set [1] (setting [17]) worked out at 198.5 ± 9.5 %; in [2] (setting [17]) it was 474.7 ± 53.5%; in data set [10] (setting [17]) it was 240.0 ± 16.4 %; in data set [11] (setting [17]), 247.6 ± 23.0 %; in data set [3] (setting [17]), 242.7 ± 35.1 %; in [4] (α1β2, maximum current by carisoprodol plus GABA (EC20) normalized to GABA (EC20) currents), 346.7 ± 67.6%. The “Efficacy of allosteric modulation by carisoprodol” value in data set [5] (setting [17]) was 232.6 ± 26.9 %; in data set [6] (setting [17]), 225.6 ± 14.6 %. The “Carisoprodol direct gating Efficacy” value in [1] (setting [18]) worked out at 30.1 ± 1.4%; in data set [10] (setting [18]) it was 37.3 ± 5.0%; in data set [11] (setting [18]), 37.7 ± 3.5%; in data set [3] (setting [18]), 13.4 ± 1.4 %; in data set [4] (α1β2, normalized to maximum GABA gated currents), 45.9 ±3%; in data set [5] (setting [18]), 36.8 ± 4.7%. Moreover, the “Carisoprodol direct gating Efficacy” value in data set [6] (setting [18]) was found to be 69.7 ± 5.4 %. The “Enhancement of GABA current by carisoprodol, % of control” value in data set [2] (+60 mV) is 204.8 ± 5.3%; in data set [2] (−60 mV), 285.3 ± 17.7%. Further, the “Mean carisoprodol direct gating effect, % of maximal GABA-gated current” value in data set [2] (100 µM carisoprodol) is recorded as 2.8%. Besides, in data set [2] (1 mM CSP, −60 mV vs +60 mV), the “Voltage-dependence of direct gating effect” value is “not impacted by membrane voltage”. Also, the “Potentiation of saturating (maximal) GABA currents” value on rat α4β3δ GABAA receptor was “significant potentiation of maximal GABA currents”; in data set [9] (α1β3γ2, sub-gating concentration of drug), “not seen”; at rat α1β3δ GABAA receptor [7] (α1β3δ), “significant potentiation of maximal GABA currents”; on rat α1β3 GABAA receptor [16] (α1β3, sub-gating concentration of drug), “not seen”. Besides, at rat α1β3δ GABAA receptor [7] (α1β3δ), the “Carisoprodol direct gating efficacy relative to THIP” value is listed as “roughly 90%”. The “Maximal carisoprodol-gated current, efficacy as % of maximal GABA-gated current” value in data set [12] is 13–43%. Besides, the “Fatal blood or plasma concentration” value in data set [14] is recorded as at least 140 µM. The “Onset of effects after administration” value in [15] is at most 30 min. Besides, in data set [15], the Plasma concentrations was 4 to 7 µg/mL. In data set [15], the “Time in which plasma concentrations are reached” value was 2 to 4 h.
